The subject of test [1] is ECHCG. Description: greenhouse herbicidal activity, post-emergence treatment. To be noted: post-emergence method, scale 0 to 100. It counts as in vivo, Echinocloa crus-galli. The source says: (§1) The culture containers used were plastic flowerpots containing loamy sand with approximately 3.0% of humus as the substrate. The seeds of the test plants were sown separately for each species.
(§2) For the pre-emergence treatment, the active ingredients, which had been suspended or emulsified in water, were applied directly after sowing by means of finely distributing nozzles. The containers were irrigated gently to promote germination and growth and subsequently covered with transparent plastic hoods until the test plants had rooted. This cover caused uniform germination of the test plants, unless this had been impaired by the active ingredients. For the post-emergence treatment, the test plants were first grown to a height of 3 to 15 cm, depending on the plant habit, and only then treated with the active ingredients which had been suspended or emulsified in water. For this purpose, the test plants were either sown directly and grown in the same containers, or they were first grown separately as seedlings and transplanted into the test containers a few days prior to treatment.
(§3) Depending on the species, the test plants were kept at 10-25° C. or 20-35° C., respectively. The test period extended over 2 to 4 weeks. During this time, the test plants were tended, and their response to the individual treatments was evaluated.
(§4) Evaluation was carried out using a scale from 0 to 100. […]

Test [2] has as its system SETFA. As to the kind of experiment: greenhouse herbicidal activity, pre-emergence treatment. To be noted: pre-emergence method, scale 0 to 100. It counts as in vivo, Setaria faberi.
Text: as §1, §2, §3, §4

Test [3] concerns ECHCG. Described as above. In kind it is in vivo, Echinocloa crus-galli. To be noted: pre-emergence method, application rate 0,250 kg/ha; scale 0 to 100.
Text: as §1, §2, §3, §4

Another test concerns AVEFA. As to the kind of experiment: greenhouse herbicidal activity, post-emergence treatment. It counts as in vivo, Avena fatua. To be noted: post-emergence method, scale 0 to 100.
Text: as §1, §2, §3
Evaluation was carried out using a scale from 0 to 100. 100 means no emergence of the test plants, or complete destruction of at least the aerial moieties, and 0 means no damage, or normal course of growth. A good herbicidal activity is given at values of 80 to 90 and a very good herbicidal activity is given at values of 90 to 100.
The test plants used in the greenhouse experiments were of the following species: Bayer code Scientific name

Another test concerns APESV. Description: greenhouse herbicidal activity, pre-emergence treatment. In kind it is in vivo, Apera spica-venti. To be noted: pre-emergence method, application rate 1,000 kg/ha; scale 0 to 100.
Text: as §1, §2, §3, §4

In test [4] the test system is AMARE. The test is described as above. In kind it is in vivo, Amaranthus retroflexus. To be noted: pre-emergence method, application rate 0,500 kg/ha; scale 0 to 100.
Text: as §1, §2, §3, §4

The subject of test [5] is AMARE. Description: greenhouse herbicidal activity, post-emergence treatment. To be noted: post-emergence method, application rate 0,250 kg/ha; scale 0 to 100. It counts as in vivo, Amaranthus retroflexus.
Text: as §1, §2, §3, §4

The test system of test [6] is ABUTH. The description is as above. In kind it is in vivo, Abutilon theophrasti. To be noted: post-emergence method, scale 0 to 100.
Text: as §1, §2, §3, §4

For test [7], the system named is SETFA. Described as above. It counts as in vivo, Setaria faberi. To be noted: post-emergence method, application rate 62.5 g/ha; scale 0 to 100.
Text: as §1, §2, §3, §4

The next test has as its system ALOMY. The test is described as above. It counts as in vivo, Alopercurus myosuroides. To be noted: post-emergence method, scale 0 to 100.
Text: as §1, §2, §3, §4

A further test has as its system LOLMU. The test is described as above. In kind it is in vivo. To be noted: post-emergence method, application rate 16.0 g/ha; scale 0 to 100.
Text: as §1, §2, §3, §4

Another test has as its system SETVI. The description is as above. It counts as in vivo, Setaria viridis. To be noted: post-emergence method, application rate 16.0 g/ha; scale 0 to 100.
Text: as §1, §2, §3, §4

Test [8] relates to ABUTH. Description: greenhouse herbicidal activity, pre-emergence treatment. It counts as in vivo, Abutilon theophrasti. To be noted: pre-emergence method, application rate 0,250 kg/ha; scale 0 to 100.
Text: as §1, §2, §3, §4

`COC(=O)[C@@H]1C=C[C@H](NC(=O)C2(C)CN(c3cc(C)cc(F)c3)C2=O)C1` (relative stereo) [compound 141]: the “herbicidal activity against ECHCG” value in the test with ECHCG [1] (application rate 0,250 kg/ha) and with ECHCG [3] was “good (A good herbicidal activity is given at values of 80 to 90)” throughout. Besides, in the test on SETFA [2] (application rate 0,250 kg/ha), the “herbicidal activity against SETFA” value is reported as “good (A good herbicidal activity is given at values of 80 to 90)”. `COC(=O)[C@@H]1C=C[C@H](NC(=O)C2(C)CN(c3cccc(OC(F)(F)C(F)F)c3)C2=O)C1` (relative stereo) [compound 146]: the “herbicidal activity against AVEFA” value in the test on AVEFA (application rate 0,250 kg/ha) is given as “good (A good herbicidal activity is given at values of 80 to 90)”. As for `COC(=O)CC(C)NC(=O)C1(C)CN(c2cc(Cl)cc(Cl)c2)C1=O` (stereo not shown) [compound 11], the “herbicidal activity against ECHCG” value in the test on ECHCG [1] (application rate 1,000 kg/ha) was “very good (a very good herbicidal activity is given at values of 90 to 100)”. The “herbicidal activity against APESV” value in the test with APESV is on record as “very good (a very good herbicidal activity is given at values of 90 to 100)”. For the same molecule, in the test on SETFA [2] (application rate 1,000 kg/ha), the “herbicidal activity against SETFA” value is “very good (a very good herbicidal activity is given at values of 90 to 100)”. Regarding `CCOC(=O)CC(C)NC(=O)C1(OC)CN(c2cc(Cl)cc(Cl)c2)C1=O` (stereo not shown) [compound 13], the “herbicidal activity against AMARE” value with AMARE [4] is given as “good (A good herbicidal activity is given at values of 80 to 90)”. Consider `CCC1(C(=O)NC(C)CC(=O)OC)CN(c2cc(Cl)cc(Cl)c2)C1=O` (stereo not shown) [compound 125], for which the “herbicidal activity against AMARE” value in the test with AMARE [5] was “good (A good herbicidal activity is given at values of 80 to 90)”.

With `COC(=O)CC(C)NC(=O)C1CN(c2cc(Cl)cc(Cl)c2)C1=O` (stereo not shown) [compound 131], in the test on ABUTH [6] (application rate 1,000 kg/ha), the “herbicidal activity against ABUTH” value is on record as “very good (a very good herbicidal activity is given at values of 90 to 100)”. Consider `CC1(C(=O)NC2C=CC(C(=O)O)C2)CN(c2cc(F)cc(F)c2)C1=O` (stereo not shown) [compound 133], for which the “herbicidal activity against AVEFA” value in the test with AVEFA (application rate 62.5 g/ha) is “very good (a very good herbicidal activity is given at values of 90 to 100)”. For the same molecule, the “herbicidal activity against SETFA” value in the test on SETFA [7] is reported as “very good (a very good herbicidal activity is given at values of 90 to 100)”. The “herbicidal activity against ALOMY” value with ALOMY (application rate 62.5 g/ha) is “good (A good herbicidal activity is given at values of 80 to 90)”. Consider `COC(=O)C1C=CC(NC(=O)C2(C)CN(c3cccc(Cl)c3)C2=O)C1` (stereo not shown) [compound 136], for which the “herbicidal activity against AVEFA” value in the test with AVEFA (application rate 16.0 g/ha) was “very good (a very good herbicidal activity is given at values of 90 to 100)”. In addition, the “herbicidal activity against LOLMU” value with LOLMU was “very good (a very good herbicidal activity is given at values of 90 to 100)”. In the test with SETVI, the “herbicidal activity against SETVI” value is on record as “very good (a very good herbicidal activity is given at values of 90 to 100)”. Regarding `COC(=O)CC(C)NC(=O)C1(C)CN(c2cc(C)cc(F)c2)C1=O` (stereo not shown) [compound 142], the “herbicidal activity against ABUTH” value in the test with ABUTH [8] was “good (A good herbicidal activity is given at values of 80 to 90)”. Besides, the “herbicidal activity against ALOMY” value with ALOMY (application rate 0,250 kg/ha) is recorded as “good (A good herbicidal activity is given at values of 80 to 90)”.

In the case of `COC(=O)C1C=CC(NC(=O)C2(C)CN(c3ccc(F)c(C#N)c3)C2=O)C1` (stereo not shown) [compound 147], the “herbicidal activity against ABUTH” value in the test on ABUTH [6] (application rate 0,250 kg/ha) was “very good (a very good herbicidal activity is given at values of 90 to 100)”.
